Values of other authors as cited in patent publication US8668905B2 (priority 2005, dated 2014).

Test system: drug-resistant SCLC

For `CC(=O)O[C@H]1C(=O)[C@@]2(C)[C@H]([C@H](OC(=O)c3ccccc3)[C@]3(O)C[C@H](OC(=O)[C@H](O)[C@@H](NC(=O)c4ccccc4)c4ccccc4)C(C)=C1C3(C)C)[C@]1(OC(C)=O)CO[C@@H]1C[C@@H]2O` [Taxol, Paclitaxel], the life-threatening toxicity ((Smit, 1998)) is listed as 20 % of patients and the median survival (drug-resistant SCLC patients (Smit, 1998)) is listed as 100 days.
